Like-named read-outs stand apart in the source and are kept apart here. Where no end group is shown, it is not given here.
How the values were obtained:
rhTNF-α = rhTNF-α (Homo sapiens, UniProt P01375); experiment: Microscale thermophoresis (MST) binding to labeled rhTNF-α; details: labeled rhTNF-α 20 nM, PBS, mean ± SD of three replicates
Procedure: MST was performed using a Monolith NT.115 Pico instrument (NanoTemper Technologies, Munich, Germany). In this technique, thermophoresis applied by irradiation with an infrared (IR) laser diode disrupts a ligand-target binding interaction that has equilibrated. The concentration of fluorescent molecules can be altered by the direct movement of molecules within a temperature gradient. The effect on the fluorescence signal is monitored continuously over time.
Experiments were performed using the Monolith Protein Labeling Kit RED-NHS 2nd Generation and Monolith NT.115 Premium Capillaries at Pico-RED 80% excitation power and medium MST power with thermophoresis. Mixtures of labeled molecules and functional peptides or TNFR1 were prepared in PBS. Labeled molecules were maintained at 20 nM for the peptide binding experiments, and the ligand concentrations varied according to the molecule with 16 serial dilutions. The peptide-labeled molecule mixture was loaded into the glass capillaries after 20 min incubation in the dark. Results were analyzed using M.O. Affinity Analysis v.2.3 software.

L929 cells [1] = experiment: MTT cytotoxicity of peptides on L929 cells; assay type: cell-based, mouse; details: at 10,000 nM (10 μM)
Procedure: (§1) The TNF-α neutralizing activity of designed peptides and adalimumab molecules was compared with cell-based bioactivity assays. L929 cells were cultured in DMEM supplemented with 10% FBS and 1% P/S in a humidified 5% CO2 incubator at 37 °C [43].
Cytotoxicity of peptides was determined using the 3-(4,5-dimethylthiazol-2-yl)-2,5 diphenyltetrazolium bromide (MTT) cell proliferation assay. Briefly, 3 × 10^4 cells in 100 μL were seeded into 96-well tissue culture plates and incubated at 37 °C in a 5% CO2 incubator for 24 ± 2 h. Peptide concentrations were diluted from 1 pM to 10 μM and measured in triplicate. The following kit protocol and absorbance were measured at 550 nm and 690 nm using a microplate reader (Gen5 Synergy HT BioTek, Winooski, VT, USA).

[2] = system: TNF-α-induced L929 cell death; experiment: TNF-α neutralization test (TNF-α-induced cytotoxicity, MTT) on L929 cells; assay type: cell-based, mouse
Procedure: as §1
(§2) In the TNF-α neutralization test, 3 × 10^4 cells in 100 μL were seeded into 96-well tissue culture plates and incubated at 37 °C in a 5% CO2 incubator for 24 ± 2 h. After incubation, cells were stimulated with 2 μg/mL actinomycin D and 1 ng/mL TNF-α in the presence of diluted concentrations of adalimumab and functional peptides ranging from 1 pM to 10 μM for 24 ± 2 h. […] TNF-α neutralizing activity was also examined by microscopy in a 24-well plate. Both the cytotoxicity effect and neutralizing activity of the OB1 peptide were visually examined by fluorescence microscopy (Zeiss AxioVert A, Oberkochen, Germany). OB1 and adalimumab were administered at a concentration of 1 μM with 1 ng/mL TNF-α.

L929 cells [3] = assay type: cell-based, mouse; details: 1 μM with TNF-α (1 ng/mL) and actinomycin D, microscopy
Procedure: as §2

TNF-α = details: peptide from T7 phage display library; cited from earlier work
Excerpt: Peptide-based TNF-α inhibition has garnered attention in recent years, as studies have shown that peptides may help treat inflammatory diseases. In a study conducted in 2023, a nine amino acid-long peptide targeting TNF-α was discovered using a T7 phage display library. […] OB1 also attenuated TNF-α-induced cell death based on morphological examination (Figure 8). […] Thus, C87 is used as a positive control in many TNF-α inhibitor studies.

Chain of rhTNF-α (P01375 77-233 limits assumed): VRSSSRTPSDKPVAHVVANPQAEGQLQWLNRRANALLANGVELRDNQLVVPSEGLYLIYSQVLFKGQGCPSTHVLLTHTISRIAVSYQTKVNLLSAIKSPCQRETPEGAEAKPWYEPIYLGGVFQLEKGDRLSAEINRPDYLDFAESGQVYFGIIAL

Substance	Kd (rhTNF-α)	survival rate in TNF-α neutralization ([2]; 2 h, 10000 nM)	other results
KRWSRYFWVDMTGTR-NH2 [OB8]	3890 ± 4540 nM	–	cytotoxicity (in words) (L929 cells [1]): non-toxic
KGGGSGGGSGGGSRKEMGQV-NH2 [OB2]	46.7 nM	~80%	–
Adalimumab	0.0211 ± 0.0036 nM	–	IC50 [2]: 3.85 nM; survival rate in TNF-α neutralization ([2]; L929 cells, 10,000 nM, 1 ng/mL TNF-α and actinomycin D): ~80%; cell survival by morphology with TNF-α and actinomycin D (L929 cells [3]): enhanced cell survival
ACHAWAPTR [pep2, nine amino acid-long peptide targeting TNF-α from a T7 phage display library]	–	–	Kd (TNF-α): 5140 nM
KGGGSGGGSHIHDDLLRYYGW-NH2 [OB1]	300 nM	~80%	IC50 ([2]; mouse): 4.6 nM

Reference: paper PMC12024540, “Peptide-Based Regulation of TNF-α-Mediated Cytotoxicity” (Biomolecules, 2025)
